Measured values reported in patent US8841090B2 (priority 2006, dated 2014).
Entries after “also recorded” stand apart in the source; their conditions may differ. Where two headings read alike, the source gives them in different places.

Assays:
KmLat1 transporter [1] = biological target: KmLat1 transporter (Kluyveromyces marxianus, UniProt A0ABX6EN84); experiment: L-arabinose transport by KmLat1 expressed in S. cerevisiae, 14C-sugar uptake; format: cell-based; conditions: for Competition with L-arabinose transport by KmLat1: competing sugars; for Inhibition of L-arabinose transport by KmLat1: protonophores and H+-ATPase inhibitors
Method: (§1) Cells are collected in mid-growth and washed twice before suspension in water at 30 mg/ml. Uptake of L-(1-^14C)arabinose (54 mCi/mmol, Moravek Biochemicals Inc.) or D-(1-^14C) galactose (57 mCi/mmol, Amersham Biosciences) is measured as previously described by Stambuk et al. (2003). Assays are performed in 30 seconds to maintain initial rates after appropriate experiments to ensure uptake is linear for at least 1 minute. […] Inhibition and competition assays are performed as previously described by Stambuk et al, (2003).
(§2) The transport characteristics of the KmLat1 and the Gal2 transporters expressed in S. cerevisiae were compared.

PgLAT2 transporter = PgLAT2 transporter (Meyerozyma guilliermondii, UniProt A5DRF8); experiment: L-arabinose transport by PgLAT2 transporter expressed in S. cerevisiae BFY605; conditions: for Competition with L-arabinose uptake by PgLAT2: competing sugars; for Inhibition of L-arabinose transport by PgLAT2: protonophores and H+-ATPase inhibitors
Method: (§3) Cells were collected in mid-growth and washed twice in water before suspension in water at about 30 mg/ml. […] Assays were performed in 5, 10, or 30 second periods to maintain initial rates. Appropriate experiments ensured uptake was linear for at least 1 minute. Transport activity was described as nmoles of labeled sugar transported per mg cell dry weight per minute.

Gal2 permease = biological target: T1, Gal2 permease (Saccharomyces cerevisiae, UniProt P13181, G90S/H392R/M8V/S50P); format: cell-based, S. cerevisiae; conditions: for Competition with L-arabinose transport by Gal2 permease: competing sugars
T1 construct: expressed in transfected cells; host or cells: S. cerevisiae BFY597 (gal2Δ::HIS3, plasmids p138 and p42)
Method: as §1, §2

P. guilliermondii Y-2075 = experiment: Sugar transport in wild type P. guilliermondii Y-2075 grown on L-arabinose; format: cell-based, Pichia guilliermondii
Method: as §3

KmLat1 transporter [2] = experiment: L-arabinose transport by KmLat1 expressed in S. cerevisiae, 14C-sugar uptake; format: cell-based, Kluyveromyces marxianus
Method: as §1, §2

[3] = inhibitor NaN3 10 mM, others 5 mM, […] labeled L-arabinose, no inhibitor = 100
[4] = inhibitor NaN3 10 mM, others 5 mM, 0.33 mM labeled L-arabinose, none = 100
[5] = competing sugar 900 mM, 30 mM labeled L-arabinose, no sugar = 100

KmLat1 transporter (Kluyveromyces marxianus, UniProt A0ABX6EN84), sequence (A0ABX6EN84 entry or part of it): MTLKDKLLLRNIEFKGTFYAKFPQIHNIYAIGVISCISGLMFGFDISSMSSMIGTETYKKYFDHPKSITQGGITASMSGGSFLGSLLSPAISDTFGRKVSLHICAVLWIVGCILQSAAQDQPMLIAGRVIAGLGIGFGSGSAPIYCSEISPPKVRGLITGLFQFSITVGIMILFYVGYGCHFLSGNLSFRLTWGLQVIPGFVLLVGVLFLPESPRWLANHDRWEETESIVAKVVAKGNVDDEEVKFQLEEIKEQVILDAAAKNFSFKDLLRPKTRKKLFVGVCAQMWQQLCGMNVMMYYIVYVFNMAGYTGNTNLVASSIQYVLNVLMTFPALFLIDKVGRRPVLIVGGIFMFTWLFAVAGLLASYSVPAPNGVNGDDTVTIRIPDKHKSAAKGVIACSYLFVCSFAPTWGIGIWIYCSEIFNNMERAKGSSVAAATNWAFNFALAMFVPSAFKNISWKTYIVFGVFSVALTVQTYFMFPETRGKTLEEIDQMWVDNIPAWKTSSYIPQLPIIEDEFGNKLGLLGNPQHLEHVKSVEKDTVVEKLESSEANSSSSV
T1 sequence (P13181 whole entry M8V/S50P/G90S/H392R): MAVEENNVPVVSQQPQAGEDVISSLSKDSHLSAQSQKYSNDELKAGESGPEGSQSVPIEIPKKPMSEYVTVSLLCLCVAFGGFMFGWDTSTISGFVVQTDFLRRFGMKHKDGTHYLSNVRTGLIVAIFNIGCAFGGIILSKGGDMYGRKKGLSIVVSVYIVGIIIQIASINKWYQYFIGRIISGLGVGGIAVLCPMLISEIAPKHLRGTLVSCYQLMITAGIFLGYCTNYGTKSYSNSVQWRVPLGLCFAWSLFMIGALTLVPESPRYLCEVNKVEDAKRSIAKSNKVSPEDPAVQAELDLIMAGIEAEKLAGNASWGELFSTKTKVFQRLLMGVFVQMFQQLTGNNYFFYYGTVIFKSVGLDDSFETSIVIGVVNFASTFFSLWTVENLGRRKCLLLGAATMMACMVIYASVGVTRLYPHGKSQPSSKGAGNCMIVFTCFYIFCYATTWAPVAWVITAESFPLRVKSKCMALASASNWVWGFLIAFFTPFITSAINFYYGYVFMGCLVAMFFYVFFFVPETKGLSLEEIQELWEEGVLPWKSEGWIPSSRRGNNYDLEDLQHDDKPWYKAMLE

SMILES	Relative L-arabinose transport (%) KmLat1 (KmLat1 transporter [1])	Relative L-arabinose transport S. cerevisiae (PgLAT2 transporter) (PgLAT2 transporter)	Competition with L-arabinose uptake by PgLAT2 (PgLAT2 transporter)	Relative L-arabinose transport (%) Gal2 (Gal2 permease; [3])	Inhibition of L-arabinose transport by KmLat1 (KmLat1 transporter [1])	Relative L-arabinose transport P. guilliermondii (P. guilliermondii Y-2075; [4])	Inhibition of L-arabinose transport by PgLAT2 (PgLAT2 transporter)	Relative L-arabinose transport (%) KmLat1 (KmLat1 transporter [1]; [3])	Relative L-arabinose transport S. cerevisiae (PgLAT2 transporter) (PgLAT2 transporter; [4])	also measured
OC[C@H]1O[C@H](O[C@H]2[C@H](O)[C@@H](O)C(O)O[C@@H]2CO)[C@H](O)[C@@H](O)[C@@H]1O (mixture of isomers) [Maltose]	38%	30	to a lesser extent	–	–	–	–	–	–	Competition with L-arabinose transport by KmLat1 (KmLat1 transporter [1]): out-competed
N#CC(C#N)=NNc1cccc(Cl)c1 [CCCP]	61%	2	–	46%	not significantly inhibited	0	significant inhibition	–	–	–
C(=NC1CCCCC1)=NC1CCCCC1 [DCCD]	55%	36	–	69%	Neither is KmLat1 inhibited	–	significant inhibition	–	–	Relative L-arabinose transport P. guilliermondii (P. guilliermondii Y-2075): 22
CC/C(=C(/CC)c1ccc(O)cc1)c1ccc(O)cc1 [DESB]	–	–	–	81%	Neither is KmLat1 inhibited	8	significant inhibition	100%	1	–
O=[N+]([O-])c1ccc(O)c([N+](=O)[O-])c1 [DNP]	–	–	–	72%	not significantly inhibited	0	significant inhibition	75%	4	–
O=C[C@H](O)[C@@H](O)[C@@H](O)[C@H](O)CO [Galactose]	–	–	inhibited	–	–	–	–	–	–	Vmax for galactose transport by Gal2p (Gal2 permease; BFY597): 76 nmol/mg/min; Relative L-arabinose transport (%) Gal2 (Gal2 permease; [5]): 3%; Competition with L-arabinose transport by Gal2 permease (Gal2 permease): significantly reduced; also recorded: out-competed; Km (Gal2 permease; read-out: Km for galactose transport by Gal2p, BFY597): 25 mM; Relative L-arabinose transport (%) KmLat1 (KmLat1 transporter [2]; competing sugar 900 mM (maltose 450 mM), 30 mM labeled L-arabinose, no sugar = 100): 23%; Competition with L-arabinose transport by KmLat1 (KmLat1 transporter [2]; competing sugars): out-competed
[N-]=[N+]=[N-].[Na+] [NaN3]	–	–	–	66%	not significantly inhibited	1	significant inhibition	11%	16	–
O=C[C@H](O)[C@@H](O)[C@H](O)CO [Xylose]	25%	0	inhibited	–	–	–	–	–	–	Relative L-arabinose transport (%) Gal2 (Gal2 permease; [5]): 25%; Competition with L-arabinose transport by Gal2 permease (Gal2 permease): significantly reduced; Competition with L-arabinose transport by KmLat1 (KmLat1 transporter [1]): out-competed; Relative L-arabinose transport P. guilliermondii (P. guilliermondii Y-2075): 4; Reduction of uptake of labeled L-arabinose (P. guilliermondii Y-2075; 100× un-labeled competing sugar): 96%
